± gives the expanded uncertainty stated by the source.
Tests used:
[1] = xn = mol fraction of the nth substance listed; conditions: 101 kPa, Liquid
[2] = 101 kPa, Liquid

CCC(=O)[O-].OCC[NH2+]CCO [bis(2-hydroxyethyl)ammonium propanoate] + CO
[1]
Conditions	mass density, 293.15 K [kg/m3]	mass density, 303.15 K [kg/m3]	mass density, 313.15 K [kg/m3]	mass density, 323.15 K [kg/m3]	viscosity, 293.15 K [mPa·s]	viscosity, 303.15 K [mPa·s]	viscosity, 313.15 K [mPa·s]	viscosity, 323.15 K [mPa·s]
x1 = 0.0437	851.2 ± 1.7	842.3 ± 1.7	833.3 ± 1.7	826.8 ± 1.8	23.19 ± 1	13.01 ± 6	4.242 ± 0.17	2.639 ± 0.11
x1 = 0.1045	913.4 ± 1.4	905.2 ± 1.4	896.9 ± 1.5	891.1 ± 1.5	52.44 ± 1.1	20.18 ± 0.45	8.903 ± 0.21	5.509 ± 0.14
x1 = 0.2138	987.8 ± 1.2	980.3 ± 1.2	972.6 ± 1.2	967.8 ± 1.2	109.39 ± 4.8	42.76 ± 0.76	19 ± 0.34	11.76 ± 0.21
x1 = 0.2957	1024.6 ± 1.2	1017.4 ± 1.2	1010 ± 1.2	1005.5 ± 1.1	153.61 ± 9.4	62.12 ± 0.95	27.33 ± 0.44	16.99 ± 0.28
x1 = 0.4	1058.1 ± 1.4	1051.2 ± 1.3	1044 ± 1.3	1039.7 ± 1.3	210.82 ± 16	86.11 ± 2.6	38.58 ± 0.59	24.16 ± 0.37
x1 = 0.5038	1082.4 ± 1.5	1075.6 ± 1.5	1068.6 ± 1.5	1064.6 ± 1.4	269.65 ± 25	109.07 ± 4.7	50.82 ± 0.48	32.04 ± 0.48
x1 = 0.6125	1101.8 ± 1.7	1095.2 ± 1.7	1088.3 ± 1.6	1084.5 ± 1.6	337.06 ± 35	135.36 ± 7.4	65.92 ± 1.1	41.76 ± 0.62
x1 = 0.6981	1114 ± 1.8	1107.6 ± 1.8	1100.9 ± 1.8	1097.1 ± 1.7	399.51 ± 45	162.04 ± 10	80.81 ± 2.2	51.21 ± 0.49
x1 = 0.8026	1126.4 ± 2	1120 ± 2	1113.3 ± 2	1109.7 ± 1.9	496.91 ± 62	208.61 ± 16	104.49 ± 4.3	65.82 ± 1.1
x1 = 0.9121	1136.5 ± 2.3	1130.1 ± 2.2	1123.4 ± 2.2	1119.7 ± 2.1	636.96 ± 88	276.64 ± 26	135.75 ± 7.4	84.16 ± 2.5
x1 = 0.9587	1140 ± 2.4	1133.5 ± 2.3	1126.8 ± 2.3	1123 ± 2.2	692.41 ± 98	301.08 ± 29	147.67 ± 8.7	91.46 ± 3.1
x1 = 1	1142.7 ± 2.4	1136.1 ± 2.4	1129.2 ± 2.4	1125.2 ± 2.3	740.28 ± 110	322.17 ± 32	157.97 ± 9.9	96.54 ± 3.5

CCC(=O)[O-].OCC[NH2+]CCO [bis(2-hydroxyethyl)ammonium propanoate] + CCO
[1]
Conditions	mass density, 293.15 K [kg/m3]	mass density, 303.15 K [kg/m3]	mass density, 313.15 K [kg/m3]	mass density, 323.15 K [kg/m3]	viscosity, 293.15 K [mPa·s]	viscosity, 303.15 K [mPa·s]	viscosity, 313.15 K [mPa·s]	viscosity, 323.15 K [mPa·s]
x1 = 0.0536	842.7 ± 1.7	834.4 ± 1.7	826.6 ± 1.8	818.5 ± 1.8	28.36 ± 1.1	14.2 ± 0.43	5.271 ± 0.18	3.309 ± 0.11
x1 = 0.1087	887.2 ± 1.5	879.2 ± 1.5	871.7 ± 1.6	864.2 ± 1.6	55.19 ± 1.1	21.36 ± 0.46	9.602 ± 0.22	5.974 ± 0.14
x1 = 0.2052	947 ± 1.3	939.4 ± 1.3	932.2 ± 1.3	925.5 ± 1.4	105.81 ± 4.5	41.43 ± 0.74	18.6 ± 0.33	11.54 ± 0.21
x1 = 0.3168	997.5 ± 1.1	990.1 ± 1.2	983 ± 1.2	977.1 ± 1.2	167.85 ± 11	68.6 ± 1.3	30.49 ± 0.49	18.98 ± 0.31
x1 = 0.4238	1034.5 ± 1.3	1027.3 ± 1.3	1020.2 ± 1.2	1014.8 ± 1.2	231.31 ± 19	95.16 ± 3.4	43.46 ± 0.67	27.2 ± 0.42
x1 = 0.5084	1058.3 ± 1.4	1051.2 ± 1.4	1044.2 ± 1.4	1039.1 ± 1.3	284.44 ± 27	116.45 ± 5.4	54.87 ± 0.58	34.45 ± 0.52
x1 = 0.5946	1078.8 ± 1.6	1071.8 ± 1.5	1064.9 ± 1.5	1060 ± 1.5	343.18 ± 36	140.21 ± 7.9	68.08 ± 1.2	42.81 ± 0.64
x1 = 0.6965	1099.1 ± 1.8	1092.3 ± 1.7	1085.4 ± 1.7	1080.8 ± 1.7	428.04 ± 50	177.51 ± 12	88.08 ± 2.8	55.22 ± 0.59
x1 = 0.804	1116.8 ± 2	1110 ± 1.9	1103.1 ± 1.9	1098.8 ± 1.9	531.61 ± 68	226.45 ± 19	112.51 ± 5	70.07 ± 1.4
x1 = 0.8895	1128.8 ± 2.2	1122 ± 2.1	1115.1 ± 2.1	1111 ± 2.1	626.32 ± 85	271.72 ± 25	133.71 ± 7.2	82.61 ± 2.3
x1 = 0.9458	1136 ± 2.3	1129.3 ± 2.3	1122.4 ± 2.2	1118.3 ± 2.2	686.37 ± 97	298.35 ± 29	146.49 ± 8.6	90.38 ± 3
x1 = 1	1142.7 ± 2.4	1136.1 ± 2.4	1129.2 ± 2.4	1125.2 ± 2.3	740.28 ± 110	322.17 ± 32	157.97 ± 9.9	96.54 ± 3.5

CCO [ethanol]
[2]
Conditions	mass density [kg/m3]	viscosity [mPa·s]
293.15 K	789.3 ± 1.9	1.18 ± 0.03
303.15 K	780.7 ± 2	1.019 ± 0.028
313.15 K	772.5 ± 2	0.8424 ± 0.026
323.15 K	763.6 ± 2.1	0.7081 ± 0.024

CO [methanol] + CCC(=O)[O-].OCC[NH2+]CCO
[1], x2 = 0
Conditions	mass density [kg/m3]	viscosity [mPa·s]
293.15 K	791.2 ± 1.9	0.6075 ± 0.023
303.15 K	781.8 ± 2	0.5535 ± 0.022
313.15 K	772.3 ± 2	0.501 ± 0.022
323.15 K	765.1 ± 2.1	0.4601 ± 0.021

CCCO [propan-1-ol] + CCC(=O)[O-].OCC[NH2+]CCO
[1], x2 = 0
Conditions	mass density [kg/m3]	viscosity [mPa·s]
293.15 K	803.2 ± 1.9	2.141 ± 0.042
303.15 K	795.5 ± 1.9	1.788 ± 0.038
313.15 K	787.6 ± 1.9	1.391 ± 0.033
323.15 K	778.7 ± 2	1.098 ± 0.029

CCC(=O)[O-].OCC[NH2+]CCO [bis(2-hydroxyethyl)ammonium propanoate] + CCCO
[1]
Conditions	mass density, 293.15 K [kg/m3]	mass density, 303.15 K [kg/m3]	mass density, 313.15 K [kg/m3]	mass density, 323.15 K [kg/m3]	viscosity, 293.15 K [mPa·s]	viscosity, 303.15 K [mPa·s]	viscosity, 313.15 K [mPa·s]	viscosity, 323.15 K [mPa·s]
x1 = 0.0585	846.5 ± 1.7	839 ± 1.7	831.3 ± 1.7	823.1 ± 1.8	31.6 ± 1.1	15.37 ± 0.45	6.146 ± 0.19	3.897 ± 0.12
x1 = 0.1031	875.3 ± 1.5	867.9 ± 1.6	860.4 ± 1.6	852.6 ± 1.6	53.29 ± 1.1	21.15 ± 0.47	9.633 ± 0.22	6.039 ± 0.15
x1 = 0.2292	942.2 ± 1.3	935 ± 1.3	927.7 ± 1.3	920.9 ± 1.4	120.07 ± 5.8	47.98 ± 0.84	21.6 ± 0.38	13.44 ± 0.23
x1 = 0.3021	973.6 ± 1.2	966.5 ± 1.2	959.3 ± 1.3	952.9 ± 1.3	161.5 ± 10	66.19 ± 1.2	29.62 ± 0.47	18.46 ± 0.3
x1 = 0.4017	1010.3 ± 1.2	1003.3 ± 1.2	996.2 ± 1.2	990.3 ± 1.2	221.9 ± 18	91.87 ± 3.1	41.98 ± 0.65	26.24 ± 0.41
x1 = 0.5009	1041.2 ± 1.3	1034.3 ± 1.3	1027.3 ± 1.3	1021.9 ± 1.3	288.32 ± 27	119.16 ± 5.7	56.4 ± 0.64	35.31 ± 0.54
x1 = 0.636	1076.2 ± 1.6	1069.4 ± 1.6	1062.5 ± 1.5	1057.6 ± 1.5	393.08 ± 44	163.5 ± 11	80.35 ± 2.2	50.21 ± 0.47
x1 = 0.7135	1093.1 ± 1.7	1086.4 ± 1.7	1079.5 ± 1.7	1074.8 ± 1.6	461.84 ± 55	194.52 ± 14	96.42 ± 3.5	60.05 ± 0.79
x1 = 0.8018	1110.2 ± 1.9	1103.5 ± 1.9	1096.5 ± 1.9	1092.1 ± 1.8	547.5 ± 71	234.75 ± 20	116.23 ± 5.4	72 ± 1.5
x1 = 0.8979	1126.6 ± 2.2	1119.9 ± 2.1	1113 ± 2.1	1108.8 ± 2.1	646.69 ± 89	281.11 ± 26	138.08 ± 7.7	84.93 ± 2.5
x1 = 0.9568	1136 ± 2.3	1129.3 ± 2.3	1122.4 ± 2.2	1118.4 ± 2.2	701.08 ± 100	304.98 ± 30	149.64 ± 9	92.03 ± 3.1
x1 = 1	1142.7 ± 2.4	1136.1 ± 2.4	1129.2 ± 2.4	1125.2 ± 2.3	740.28 ± 110	322.17 ± 32	157.97 ± 9.9	96.54 ± 3.5

CCCO [propan-1-ol]
[2]
Conditions	mass density [kg/m3]	viscosity [mPa·s]
293.15 K	803.2 ± 1.9	2.141 ± 0.042
303.15 K	795.5 ± 1.9	1.788 ± 0.038
313.15 K	787.6 ± 1.9	1.391 ± 0.033
323.15 K	778.7 ± 2	1.098 ± 0.029

CCO [ethanol] + CCC(=O)[O-].OCC[NH2+]CCO
[1], x2 = 0
Conditions	mass density [kg/m3]	viscosity [mPa·s]
293.15 K	789.3 ± 1.9	1.18 ± 0.03
303.15 K	780.7 ± 2	1.019 ± 0.028
313.15 K	772.5 ± 2	0.8424 ± 0.026
323.15 K	763.6 ± 2.1	0.7081 ± 0.024

CO [methanol]
[2]
Conditions	mass density [kg/m3]	viscosity [mPa·s]
293.15 K	791.2 ± 1.9	0.6075 ± 0.023
303.15 K	781.8 ± 2	0.5535 ± 0.022
313.15 K	772.3 ± 2	0.501 ± 0.022
323.15 K	765.1 ± 2.1	0.4601 ± 0.021

CCC(=O)[O-].OCC[NH2+]CCO [bis(2-hydroxyethyl)ammonium propanoate]
[2]
Conditions	mass density [kg/m3]	viscosity [mPa·s]
293.15 K	1142.7 ± 2.4	740.28 ± 110
303.15 K	1136.1 ± 2.4	322.17 ± 32
313.15 K	1129.2 ± 2.4	157.97 ± 9.9
323.15 K	1125.2 ± 2.3	96.54 ± 3.5

Source: the NIST ThermoML archive (doi:10.1021/je100848r)
